In patent US11771709B2, “ALK protein degradation agent and anti-tumor application thereof” (ShanghaiTech University, priority 2017, dated 2023):

Each compound was assayed on SR (NPM-ALK) cells (assay: Growth inhibition IC50 in ALCL SR cells (CCK8/WST, 72 hours)). Conditions: 72 h, SR cells, WST; Brigatinib-based PROTAD molecules (Table 3).
Type: cell-based
Experimental: SR (NPM-ALK) and NCI-H2228 (EML4-ALK, V3) cells were purchased from ATCC. […] All Cells were cultured in RPMI1640 medium with 10% FBS and Penicillin-Streptomycin in 37° C. incubator with 5% CO2.
Cells were seeded at specific density in 96 well plates one day before treatment. […] Viable cells were measured via CCK8 reagent and IC50s were calculated via Prism Graphad. Experiments were repeated at least three times.
Work on `COc1cc(N2CCC(N3CCN(C(=O)CCCCCCNc4cccc5c4CN(C4CCC(=O)NC4=O)C5=O)CC3)CC2)ccc1Nc1ncc(Cl)c(Nc2ccccc2P(C)(C)=O)n1` (centres unmarked) [SIAIS219124, 3-(4-((7-(4-(1-(4-((5-chloro-4-((2-(dimethylphosphoryl)phenyl)amino)pyrimidin-2-yl)amino)-3-methoxyphenyl)piperidin-4-yl)piperazin-1-yl)-7-oxoheptyl)amino)-1-oxoisoindolin-2-yl)piperidine-2,6-dione] yielded an IC50 of 0.00247 ± 0.0006 µM.
Work on `COc1cc(N2CCC(NC(=O)CCCNc3cccc4c3CN(C3CCC(=O)NC3=O)C4=O)CC2)ccc1Nc1ncc(Cl)c(Nc2ccccc2P(C)(C)=O)n1` (centres unmarked) [SIAIS219128, N-(1-(4-((5-chloro-4-((2-(dimethylphosphoryl)phenyl)amino)pyrimidin-2-yl)amino)-3-methoxyphenyl)piperidin-4-yl)-4-((2-(2,6-dioxopiperidin-3-yl)-1-oxoisoindolin-4-yl)amino)butanamide] yielded an IC50 of 0.00667 ± 0.001 µM.
Compound `COc1cc(N2CCC(NC(=O)CNc3cccc4c3CN(C3CCC(=O)NC3=O)C4=O)CC2)ccc1Nc1ncc(Cl)c(Nc2ccccc2P(C)(C)=O)n1` (centres unmarked) [SIAIS219151, N-(1-(4-((5-chloro-4-((2-(dimethylphosphoryl)phenyl)amino)pyrimidin-2-yl)amino)-3-methoxyphenyl)piperidin-4-yl)-2-((2-(2,6-dioxopiperidin-3-yl)-1-oxoisoindolin-4-yl)amino)acetamide] has an IC50 of 0.102 ± 0.0048 µM.
Compound `COc1cc(N2CCC(NC(=O)CCCCNc3cccc4c3CN(C3CCC(=O)NC3=O)C4=O)CC2)ccc1Nc1ncc(Cl)c(Nc2ccccc2P(C)(C)=O)n1` (centres unmarked) [SIAIS219152, N-(1-(4-((5-chloro-4-((2-(dimethylphosphoryl)phenyl)amino)pyrimidin-2-yl)amino)-3-methoxyphenyl)piperidin-4-yl)-5-((2-(2,6-dioxopiperidin-3-yl)-1-oxoisoindolin-4-yl)amino)pentanamide] has an IC50 of 0.00378 ± 0.0004 µM.
Work on `COc1cc(N2CCC(NC(=O)CCCCCNc3cccc4c3CN(C3CCC(=O)NC3=O)C4=O)CC2)ccc1Nc1ncc(Cl)c(Nc2ccccc2P(C)(C)=O)n1` (centres unmarked) [SIAIS219153, N-(1-(4-((5-chloro-4-((2-(dimethylphosphoryl)phenyl)amino)pyrimidin-2-yl)amino)-3-methoxyphenyl)piperidin-4-yl)-6-((2-(2,6-dioxopiperidin-3-yl)-1-oxoisoindolin-4-yl)amino)hexanamide] yielded an IC50 of 0.00312 ± 0.0002 µM.
In the case of `COc1cc(N2CCC(NC(=O)CCCCCCNc3cccc4c3CN(C3CCC(=O)NC3=O)C4=O)CC2)ccc1Nc1ncc(Cl)c(Nc2ccccc2P(C)(C)=O)n1` (centres unmarked) [SIAIS219154, N-(1-(4-((5-chloro-4-((2-(dimethylphosphoryl)phenyl)amino)pyrimidin-2-yl)amino)-3-methoxyphenyl)piperidin-4-yl)-7-((2-(2,6-dioxopiperidin-3-yl)-1-oxoisoindolin-4-yl)amino)heptanamide], the IC50 is reported as 0.0038 ± 0.0002 µM.

Same assay, conditions: SR cells, WST; Alectinib based ALK PROTAD compounds (Table 4)
With `CCc1cc2c(cc1N1CCC(N3CCN(C(=O)CCCCC(=O)N[C@H](C(=O)N4C[C@H](O)C[C@H]4C(=O)NCc4ccc(-c5scnc5C)cc4)C(C)(C)C)CC3)CC1)C(C)(C)c1[nH]c3cc(C#N)ccc3c1C2=O` [SIAIS219015, (2S,4R)-1-((S)-2-(6-(4-(1-(3-cyano-9-ethyl-6,6-dimethyl-11-oxo-6,11-dihydro-5H-benzo[b]carbazol-8-yl)piperidin-4-yl)piperazin-1-yl)-6-oxohexanamido)-3,3-dimethylbutanoyl)-4-hydroxy-N-(4-(4-methylthiazol-5-yl)benzyl)pyrrolidine-2-carboxamide] the IC50 was 0.11 µM.
Compound `CCc1cc2c(cc1N1CCC(N3CCN(C(=O)CCCCCCCCC(=O)N[C@H](C(=O)N4C[C@H](O)C[C@H]4C(=O)NCc4ccc(-c5scnc5C)cc4)C(C)(C)C)CC3)CC1)C(C)(C)c1[nH]c3cc(C#N)ccc3c1C2=O` [SIAIS219016, (2S,4R)-1-((S)-2-(10-(4-(1-(3-cyano-9-ethyl-6,6-dimethyl-11-oxo-6,11-dihydro-5H-benzo[b]carbazol-8-yl)piperidin-4-yl)piperazin-1-yl)-10-oxodecanamido)-3,3-dimethylbutanoyl)-4-hydroxy-N-(4-(4-methylthiazol-5-yl)benzyl)pyrrolidine-2-carboxamide] has an IC50 of 0.0808 µM.
Work on `CCc1cc2c(cc1N1CCC(N3CCN(C(=O)CCOCCOCCNc4cccc5c4C(=O)N(C4CCC(=O)NC4=O)C5=O)CC3)CC1)C(C)(C)c1[nH]c3cc(C#N)ccc3c1C2=O` (centres unmarked) [SIAIS219018, 8-(4-(4-(3-(2-(2-((2-(2,6-dioxopiperidin-3-yl)-1,3-dioxoisoindolin-4-yl)amino)ethoxy)ethoxy)propanoyl)piperazin-1-yl)piperidin-1-yl)-9-ethyl-6,6-dimethyl-11-oxo-6,11-dihydro-5H-benzo[b]carbazole-3-carbonitrile] yielded an IC50 of 0.0133 µM.
In the case of `CCc1cc2c(cc1N1CCC(N3CCN(C(=O)CCOCCOCCOCCOCCNc4cccc5c4C(=O)N(C4CCC(=O)NC4=O)C5=O)CC3)CC1)C(C)(C)c1[nH]c3cc(C#N)ccc3c1C2=O` (centres unmarked) [SIAIS219019, 8-(4-(4-(1-((2-(2,6-dioxopiperidin-3-yl)-1,3-dioxoisoindolin-4-yl)amino)-3,6,9,12-tetraoxapentadecan-15-oyl)piperazin-1-yl)piperidin-1-yl)-9-ethyl-6,6-dimethyl-11-oxo-6,11-dihydro-5H-benzo[b]carbazole-3-carbonitrile], the IC50 is reported as 0.0383 µM.
In the case of `CCc1cc2c(cc1N1CCC(NC(=O)CCCCC(=O)N[C@H](C(=O)N3C[C@H](O)C[C@H]3C(=O)NCc3ccc(-c4scnc4C)cc3)C(C)(C)C)CC1)C(C)(C)c1[nH]c3cc(C#N)ccc3c1C2=O` [SIAIS219020, N1-(1-(3-cyano-9-ethyl-6,6-dimethyl-11-oxo-6,11-dihydro-5H-benzo[b]carbazol-8-yl)piperidin-4-yl)-N6-((S)-1-((2S,4R)-4-hydroxy-2-((4-(4-methylthiazol-5-yl)benzyl)carbamoyl)pyrrolidin-1-yl)-3,3-dimethyl-1-oxobutan-2-yl)adipamide], the IC50 is reported as 0.0303 µM.
For `CCc1cc2c(cc1N1CCC(NC(=O)CCCCCCCCC(=O)N[C@H](C(=O)N3C[C@H](O)C[C@H]3C(=O)NCc3ccc(-c4scnc4C)cc3)C(C)(C)C)CC1)C(C)(C)c1[nH]c3cc(C#N)ccc3c1C2=O` [SIAIS219021, N1-(1-(3-cyano-9-ethyl-6,6-dimethyl-11-oxo-6,11-dihydro-5H-benzo[b]carbazol-8-yl)piperidin-4-yl)-N10-((S)-1-((2S,4R)-4-hydroxy-2-((4-(4-methylthiazol-5-yl)benzyl)carbamoyl)pyrrolidin-1-yl)-3,3-dimethyl-1-oxobutan-2-yl)decanediamide], the IC50 was 0.115 µM.
`CCc1cc2c(cc1N1CCC(NC(=O)CCOCCOCCNc3cccc4c3C(=O)N(C3CCC(=O)NC3=O)C4=O)CC1)C(C)(C)c1[nH]c3cc(C#N)ccc3c1C2=O` (centres unmarked) [SIAIS219023] gave an IC50 of 0.0293 µM.
Compound `CCc1cc2c(cc1N1CCC(NC(=O)CCOCCOCCOCCOCCNc3cccc4c3C(=O)N(C3CCC(=O)NC3=O)C4=O)CC1)C(C)(C)c1[nH]c3cc(C#N)ccc3c1C2=O` (centres unmarked) [SIAIS219024, N-(1-(3-cyano-9-ethyl-6,6-dimethyl-11-oxo-6,11-dihydro-5H-benzo[b]carbazol-8-yl)piperidin-4-yl)-1-((2-(2,6-dioxopiperidin-3-yl)-1,3-dioxoisoindolin-4-yl)amino)-3,6,9,12-tetraoxapentadecan-15-amide] has an IC50 of 0.0731 µM.
